Patent US20110105420A1, “AMINOSUGAR COMPOUND AND PROCESS FOR PRODUCTION THEREOF” (Astellas Pharma Inc., priority 2008, published 2011)
pIC50: −log10 of the molar value.

Tests used:
[1] = target: monkey pancreatic α-amylase; experiment: α-amylase inhibitory activity (starch-iodine absorbance); assay type: biochemical; conditions: cynomolgus monkey pancreas enzyme, starch substrate, 37° C., pH=7.0; read-out: inhibitory activity (IC50 value) against the monkey pancreatic α-amylase
Method: (§1) The solutions of pancreatic α-amylases of mouse, rat, dog and monkey were prepared from the pancreases of an ICR mouse (male, 8 weeks old, purchased from SLC Japan, Inc.), an SD rat (male, 8 weeks old, purchased from Charles River Laboratories Japan, Inc.), a beagle dog (male, 35 months old, purchased from Narc Corp.), and a cynomolgus monkey (male, 10 years old, purchased from CLEA Japan, Inc.). The solutions of α-amylases from human saliva and pancreas were prepared from the enzymes purchased from Sigma-Aldrich Co. These α-amylase solutions were all diluted to 800 U/mL using an assay buffer (48 mM NaCl, 5.4 mM KCl, 28 mM Na2HPO4, 43 mM NaH2PO4, 35 mM mannitol, pH=7.0). The various α-amylase solutions (20 U, 25 μL) and the compounds dissolved in the assay buffer (25 μL) were added to a 96-well microplate, and the microplate was incubated at 37° C. for 10 minutes. Subsequently, a starch solution (5 mg/mL, 50 μL) was added thereto, and the microplate was incubated at 37° C. for 10 minutes. A 0.33 M perchloric acid solution (50 μL) was added to the microplate to terminate the enzymatic reaction, and then a 0.01 M iodine solution (50 μL) was added thereto to color the solutions. The absorbance (660 nm) of each of the solutions was measured. The concentration of the compound inhibiting 50% of the α-amylase activity was calculated as the IC50 value.

human saliva α-amylase = target: T1, human saliva α-amylase (Homo sapiens, UniProt P0DUB6); experiment: as above; assay type: biochemical; conditions: enzyme from Sigma-Aldrich, starch substrate, 37° C., pH=7.0; read-out: inhibitory activity (IC50 value) against the human saliva α-amylase
T1 construct: The solutions of α-amylases from human saliva and pancreas were prepared from the enzymes purchased from Sigma-Aldrich Co; purchased Sigma-Aldrich Co; host or cells: human saliva
T1 sequence (P0DUB6 16-511): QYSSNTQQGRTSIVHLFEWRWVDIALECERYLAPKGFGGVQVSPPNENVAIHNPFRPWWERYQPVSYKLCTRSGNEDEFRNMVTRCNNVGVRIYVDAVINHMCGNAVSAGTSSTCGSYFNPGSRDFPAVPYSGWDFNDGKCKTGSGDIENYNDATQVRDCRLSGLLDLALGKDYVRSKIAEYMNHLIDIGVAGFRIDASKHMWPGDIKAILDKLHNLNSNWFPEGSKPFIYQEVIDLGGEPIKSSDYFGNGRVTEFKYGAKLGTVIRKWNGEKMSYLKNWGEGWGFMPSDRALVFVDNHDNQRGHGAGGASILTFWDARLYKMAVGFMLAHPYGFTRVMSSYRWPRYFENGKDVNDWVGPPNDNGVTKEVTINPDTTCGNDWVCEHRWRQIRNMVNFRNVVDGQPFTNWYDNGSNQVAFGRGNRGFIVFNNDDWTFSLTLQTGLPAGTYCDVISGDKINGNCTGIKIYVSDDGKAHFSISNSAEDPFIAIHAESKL
Method: as §1

rat pancreatic α-amylase = target: T2, rat pancreatic α-amylase (Rattus norvegicus, UniProt P00689); experiment: as above; assay type: biochemical; conditions: read-out: inhibitory activity (IC50 value) against the rat pancreatic α-amylase; SD rat pancreas enzyme, starch substrate, 37° C., pH=7.0
T2 construct: The solutions of pancreatic α-amylases of mouse, rat, dog and monkey were prepared from the pancreases; from tissue; host or cells: pancreas of SD rat (male, 8 weeks old, Charles River Laboratories Japan)
T2 sequence (P00689 16-508): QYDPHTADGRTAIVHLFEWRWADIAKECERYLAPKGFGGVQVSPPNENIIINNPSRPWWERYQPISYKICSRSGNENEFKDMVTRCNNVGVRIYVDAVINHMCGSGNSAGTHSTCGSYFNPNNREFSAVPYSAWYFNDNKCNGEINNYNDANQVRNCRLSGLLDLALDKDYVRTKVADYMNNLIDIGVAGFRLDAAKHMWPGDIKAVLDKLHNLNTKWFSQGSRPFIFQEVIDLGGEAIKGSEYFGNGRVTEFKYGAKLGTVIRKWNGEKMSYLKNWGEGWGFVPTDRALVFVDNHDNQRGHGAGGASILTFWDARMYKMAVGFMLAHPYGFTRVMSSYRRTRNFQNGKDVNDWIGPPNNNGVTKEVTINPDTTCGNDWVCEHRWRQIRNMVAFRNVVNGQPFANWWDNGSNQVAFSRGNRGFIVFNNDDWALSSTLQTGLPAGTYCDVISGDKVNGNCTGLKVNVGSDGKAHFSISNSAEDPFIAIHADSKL
Method: as §1

dog pancreatic α-amylase = experiment: as above; assay type: biochemical; conditions: beagle dog pancreas enzyme, starch substrate, 37° C., pH=7.0; read-out: inhibitory activity (IC50 value) against the dog pancreatic α-amylase
Method: as §1

[2] = target: T3, human pancreatic α-amylase (Homo sapiens, UniProt P04746); experiment: as above; assay type: biochemical; conditions: enzyme from Sigma-Aldrich, starch substrate, 37° C., pH=7.0; read-out: inhibitory activity (IC50 value) against the human pancreatic α-amylase
T3 construct: The solutions of α-amylases from human saliva and pancreas were prepared from the enzymes purchased from Sigma-Aldrich Co; purchased Sigma-Aldrich Co; host or cells: human pancreas
T3 sequence (P04746 16-511): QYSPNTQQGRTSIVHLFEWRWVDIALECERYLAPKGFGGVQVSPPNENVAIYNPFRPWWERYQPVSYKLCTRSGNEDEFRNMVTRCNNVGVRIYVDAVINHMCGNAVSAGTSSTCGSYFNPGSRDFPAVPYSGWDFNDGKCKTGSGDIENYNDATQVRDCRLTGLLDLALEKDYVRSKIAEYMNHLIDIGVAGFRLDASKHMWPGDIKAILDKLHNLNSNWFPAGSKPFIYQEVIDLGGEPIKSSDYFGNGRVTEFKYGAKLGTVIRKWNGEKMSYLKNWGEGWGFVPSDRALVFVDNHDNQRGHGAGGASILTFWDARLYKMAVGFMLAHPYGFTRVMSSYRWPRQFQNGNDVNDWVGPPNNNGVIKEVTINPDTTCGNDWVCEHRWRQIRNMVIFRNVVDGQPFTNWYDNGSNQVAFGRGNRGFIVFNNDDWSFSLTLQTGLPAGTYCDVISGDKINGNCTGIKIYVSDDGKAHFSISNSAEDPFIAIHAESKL
Method: as §1

[3] = target: T4, mouse pancreatic α-amylase (Mus musculus, UniProt P00688); experiment: as above; assay type: biochemical; conditions: read-out: inhibitory activity (IC50 value) against the mouse pancreatic α-amylase; ICR mouse pancreas enzyme, starch substrate, 37° C., pH=7.0
T4 construct: prepared from the pancreases of an ICR mouse; from tissue; host or cells: pancreas of ICR mouse (male, 8 weeks old, SLC Japan)
T4 sequence (P00688 16-508): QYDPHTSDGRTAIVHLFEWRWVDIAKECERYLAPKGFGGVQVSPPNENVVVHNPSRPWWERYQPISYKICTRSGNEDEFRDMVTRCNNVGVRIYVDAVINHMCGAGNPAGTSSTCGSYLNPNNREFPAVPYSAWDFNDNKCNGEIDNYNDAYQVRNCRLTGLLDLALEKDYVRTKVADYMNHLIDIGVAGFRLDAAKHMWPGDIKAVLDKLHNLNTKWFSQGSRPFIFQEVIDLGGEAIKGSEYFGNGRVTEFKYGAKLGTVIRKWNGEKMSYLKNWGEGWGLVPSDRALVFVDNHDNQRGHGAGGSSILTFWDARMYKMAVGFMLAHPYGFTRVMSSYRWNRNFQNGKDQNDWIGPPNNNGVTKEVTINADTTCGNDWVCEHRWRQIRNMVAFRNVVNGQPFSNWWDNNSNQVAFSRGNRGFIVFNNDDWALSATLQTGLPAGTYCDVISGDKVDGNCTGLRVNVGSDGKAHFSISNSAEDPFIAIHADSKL
Method: as §1

[4] = Solubility (physicochemical properties)
Male ICR (normal) mice = experiment: oral activity under a load of carbohydrates (blood glucose and plasma insulin); assay type: in vivo, mouse
Method: Male ICR (normal) mice (6 weeks old, purchased from SLC Japan, Inc.) were used for the animal. The compound was prepared into a solution using a 0.5% methylcellulose solution. Blood was collected from a mouse which had been fasted overnight, for the measurement of the blood glucose level and the blood plasma insulin level, and the mouse was orally administered with a solvent or the compound A (0.3, 1, 3, 10 mg/kg), immediately followed by oral administration of a carbohydrate solution (75 mg/mL starch, 25 mg/mL sucrose, 20 mL/kg). Subsequently, blood was collected 0.25, 0.5 and 1 hour after the oral administration, for the measurement of the blood plasma insulin level, and blood was collected 0.5, 1 and 2 hours after the oral administration, for the measurement of the blood glucose level.
The blood glucose level was measured by using Glucose CH-test Wako reagent (Wako Pure Chemical Industry, Ltd.), and the blood plasma insulin concentration was measured by using a Mouse Insulin ELISA Kit (Shibayagi Co., Ltd.). The test results are indicated in the average ±standard error.
The area-under-curve (AUC) of the blood glucose level-time curve was calculated from the blood glucose level for the time period up to 2 hours from the administration of the compound, and the AUC of the plasma insulin level-time curve was calculated from the blood plasma insulin level for the time period up to 1 hour from the administration of the compound. A statistical analysis was performed between the solvent-administered group and the compound A-administered group by using Dunnett's multiple range test, and a critical rate of less than 5% was defined as significant.

Row | pIC50 [1] | pIC50 (human saliva α-amylase) | pIC50 (rat pancreatic α-amylase) | pIC50 (dog pancreatic α-amylase) | pIC50 [2] | pIC50 [3] | Solubility in acetone, MeOH, EtOH and MeCN [4] | Solubility in water, DMF and DMSO [4] | SMILES | blood glucose elevation suppressive action (Male ICR (normal) mice; oral administration 0.3 to 10 mg/kg, fasted ICR mice, carbohydrate load (starch + sucrose), glucose up to 2 hours, FIG. 7) | plasma insulin level lowering action (Male ICR (normal) mice; oral administration 0.3 to 10 mg/kg, fasted ICR mice, carbohydrate load, insulin up to 1 hour, FIG. 8) | dose at which the blood glucose elevation suppressive action was significant (Male ICR (normal) mice; oral, ICR mice, carbohydrate load, Dunnett's test vs solvent group) [mg/kg]
1 | 8.67 | 8.66 | 8.70 | 8.69 | 8.69 | 8.72 | slightly soluble | highly soluble | CC1OC(OC2C(CO)OC(OC3C(CO)=CC(NC4C(C)OC(OC5C(CO)OC(OC6C(CO)=CC(NC7C(C)OC(OC8C(CO)OC(OC9C(CO)=CC(NC%10C(C)OC(OC%11C(CO)OC(OC%12C(CO)OC(OC%13C(CO)OC(OC%14OC(CO)C(O)C(O)C%14O)C(O)C%13O)C(O)C%12O)C(O)C%11O)C(O)C%10O)C(O)C9O)C(O)C8O)C(O)C7O)C(O)C6O)C(O)C5O)C(O)C4O)C(O)C3O)C(O)C2O)C(O)C(O)C1NC1C=C(CO)C(O)C(O)C1O (stereo not drawn) [compound A] | dose-dependent blood glucose elevation suppressive action was recognized | dose-dependent, significant plasma insulin level lowering action was also recognized | ≥ 1
2 | 8.72 | 8.73 | 8.67 | 8.62 | 8.68 | 8.69 | slightly soluble | highly soluble | CC1OC(OC2C(CO)OC(OC3C(CO)=CC(NC4C(C)OC(OC5C(CO)OC(OC6C(CO)=CC(NC7C(C)OC(OC8C(CO)OC(OC9C(CO)=CC(NC%10C(C)OC(OC%11C(CO)OC(OC%12C(CO)=CC(NC%13C(C)OC(OC%14C(CO)OC(OC%15C(CO)OC(OC%16C(CO)OC(OC%17OC(CO)C(O)C(O)C%17O)C(O)C%16O)C(O)C%15O)C(O)C%14O)C(O)C%13O)C(O)C%12O)C(O)C%11O)C(O)C%10O)C(O)C9O)C(O)C8O)C(O)C7O)C(O)C6O)C(O)C5O)C(O)C4O)C(O)C3O)C(O)C2O)C(O)C(O)C1NC1C=C(CO)C(O)C(O)C1O (stereo not drawn) [compound B] |  |  | 
3 | 8.69 | 8.70 | 8.71 | 8.68 | 8.66 | 8.76 | slightly soluble | highly soluble | CC1OC(OC2C(CO)OC(OC3C(CO)=CC(NC4C(C)OC(OC5C(CO)OC(OC6C(CO)=CC(NC7C(C)OC(OC8C(CO)OC(OC9C(CO)=CC(NC%10C(C)OC(OC%11C(CO)OC(OC%12C(CO)=CC(NC%13C(C)OC(OC%14C(CO)OC(OC%15C(CO)=CC(NC%16C(C)OC(OC%17C(CO)OC(OC%18C(CO)OC(OC%19C(CO)OC(OC%20OC(CO)C(O)C(O)C%20O)C(O)C%19O)C(O)C%18O)C(O)C%17O)C(O)C%16O)C(O)C%15O)C(O)C%14O)C(O)C%13O)C(O)C%12O)C(O)C%11O)C(O)C%10O)C(O)C9O)C(O)C8O)C(O)C7O)C(O)C6O)C(O)C5O)C(O)C4O)C(O)C3O)C(O)C2O)C(O)C(O)C1NC1C=C(CO)C(O)C(O)C1O (stereo not drawn) [compound C] |  |  | 
